Article PMC5896373 (Molecular Pharmacology, 2018)
Numbering of substitutions follows the chain as printed.

Key:
[1] = molecular target: T1, P2X7R point mutant F103A (Homo sapiens, UniProt Q99572, F103A/I21V/M24R/N16P/N25R/Q22R/R20V/S23N/T19I/Y26L); experiment: cell-based
T1 construct: expressed in transfected cells; host or cells: Xenopus laevis oocytes (cRNA injection)
Procedure: (§1) Injected oocytes were stored at 16°C in ND96 buffer [in millimolar concentrations, NaCl 96, KCl 2, CaCl2 1.8, MgCl2 1, sodium pyruvate 5, and HEPES 5 (pH 7.6) supplemented with 50 μg/ml gentamycin and 50 μg/ml tetracycline]. Three to seven days postinjection two-electrode voltage clamp recordings were made from oocytes bathed in divalent-free ND96 buffer (in millimolar concentrations, NaCl 96, KCl 2, sodium pyruvate 5, HEPES 5, and 0.1 flufenamic acid, pH 7.6). Oocytes were voltage clamped at a holding potential of −60 mV with a GeneClamp500B amplifier (Molecular Devices).
Inhibition by the antagonists was expressed as the percentage of the peak current amplitude of an EC90 concentration of ATP recorded before the application of antagonist (ATP gave reproducible responses to ATP in the absence of antagonist). Inhibition curves were fitted with the Hill equation (variable slope) using GraphPad Prism 6 (GraphPad Software, San Diego, CA). […] Individual concentration-response curves were generated for individual experiments, and statistical analysis was carried out on the data generated. When shown in figures, the inhibition curves are fitted to the mean normalized data. […] Data are shown as mean ± S.E.M. In all cases n ≥ 3 for all data points.

[2] = molecular target: T2, P2X7R point mutant L83A (Homo sapiens, UniProt Q99572, I21V/L83A/M24R/N16P/N25R/Q22R/R20V/S23N/T19I/Y26L); experiment: Two-electrode voltage clamp of ATP-evoked currents in Xenopus oocytes; format: cell-based; settings: EC90 ATP, mean ± S.E.M.
T2 construct: expressed in transfected cells; host or cells: Xenopus laevis oocytes (cRNA injection)
Procedure: as §1
(§2) Inhibition by the antagonists was expressed as the percentage of the peak current amplitude of an EC90 concentration of ATP recorded before the application of antagonist (ATP gave reproducible responses to ATP in the absence of antagonist). Inhibition curves were fitted with the Hill equation (variable slope) using GraphPad Prism 6 (GraphPad Software, San Diego, CA). […] Individual concentration-response curves were generated for individual experiments, and statistical analysis was carried out on the data generated. […] Data are shown as mean ± S.E.M. In all cases n ≥ 3 for all data points.

[3] = molecular target: T3, P2X7R point mutant T90V (Homo sapiens, UniProt Q99572, I21V/M24R/N16P/N25R/Q22R/R20V/S23N/T19I/T90V/Y26L); experiment: as above; format: cell-based; settings: EC90 ATP, mean ± S.E.M.
T3 construct: expressed in transfected cells; host or cells: Xenopus laevis oocytes (cRNA injection)
Procedure: (§3) Additional point mutants were made using the QuikChange mutagenesis kit (Stratagene California, La Jolla, CA). The production of the correct mutations and absence of coding errors was determined by DNA sequencing (Automated ABI Sequencing Service, University of Leicester, UK). cRNA was generated for the mutants and 50 nl (50 ng) was injected into manually defoliculated stage V Xenopus laevis oocytes using an Inject+Matic microinjector (J.A. Gabay, Inject+Matic, Geneva, Switzerland). Injected oocytes were stored at 16°C in ND96 buffer [in millimolar concentrations, NaCl 96, KCl 2, CaCl2 1.8, MgCl2 1, sodium pyruvate 5, and HEPES 5 (pH 7.6) supplemented with 50 μg/ml gentamycin and 50 μg/ml tetracycline]. Three to seven days postinjection two-electrode voltage clamp recordings were made from oocytes bathed in divalent-free ND96 buffer (in millimolar concentrations, NaCl 96, KCl 2, sodium pyruvate 5, HEPES 5, and 0.1 flufenamic acid, pH 7.6). Oocytes were voltage clamped at a holding potential of −60 mV with a GeneClamp500B amplifier (Molecular Devices).
(§4) Inhibition by the antagonists was expressed as the percentage of the peak current amplitude of an EC90 concentration of ATP recorded before the application of antagonist (ATP gave reproducible responses to ATP in the absence of antagonist). […]

[4] = molecular target: T4, P2X7R point mutant F88A (Homo sapiens, UniProt Q99572, F88A/I21V/M24R/N16P/N25R/Q22R/R20V/S23N/T19I/Y26L); experiment: as above; format: cell-based; settings: EC90 ATP, mean ± S.E.M.
T4 construct: expressed in transfected cells; host or cells: Xenopus laevis oocytes (cRNA injection)
Procedure: as §3, §4

[5] = molecular target: T5, P2X7R point mutant Y299C (Homo sapiens, UniProt Q99572, I21V/M24R/N16P/N25R/Q22R/R20V/S23N/T19I/Y26L/Y299C); experiment: as above; format: cell-based; settings: EC90 ATP, mean ± S.E.M.
T5 construct: expressed in transfected cells; host or cells: Xenopus laevis oocytes (cRNA injection)
Procedure: as §3, §4

[6] = molecular target: T6, chimeric P2X7/1 receptor 81–88 (Homo sapiens, UniProt Q99572, F88W/H85P/I21V/K81P/K82G/M24R/N16P/N25R/Q22R/R20V/S23N/S86Q/T19I/V84G/Y26L); experiment: as above; format: cell-based
T6 construct: expressed in transfected cells; host or cells: Xenopus laevis oocytes (cRNA injection)
T6 sequence (Q99572 1-595 N16P/T19I/R20V/I21V/Q22R/S23N/M24R/N25R/Y26L/K81P/K82G/V84G/H85P/S86Q/F88W): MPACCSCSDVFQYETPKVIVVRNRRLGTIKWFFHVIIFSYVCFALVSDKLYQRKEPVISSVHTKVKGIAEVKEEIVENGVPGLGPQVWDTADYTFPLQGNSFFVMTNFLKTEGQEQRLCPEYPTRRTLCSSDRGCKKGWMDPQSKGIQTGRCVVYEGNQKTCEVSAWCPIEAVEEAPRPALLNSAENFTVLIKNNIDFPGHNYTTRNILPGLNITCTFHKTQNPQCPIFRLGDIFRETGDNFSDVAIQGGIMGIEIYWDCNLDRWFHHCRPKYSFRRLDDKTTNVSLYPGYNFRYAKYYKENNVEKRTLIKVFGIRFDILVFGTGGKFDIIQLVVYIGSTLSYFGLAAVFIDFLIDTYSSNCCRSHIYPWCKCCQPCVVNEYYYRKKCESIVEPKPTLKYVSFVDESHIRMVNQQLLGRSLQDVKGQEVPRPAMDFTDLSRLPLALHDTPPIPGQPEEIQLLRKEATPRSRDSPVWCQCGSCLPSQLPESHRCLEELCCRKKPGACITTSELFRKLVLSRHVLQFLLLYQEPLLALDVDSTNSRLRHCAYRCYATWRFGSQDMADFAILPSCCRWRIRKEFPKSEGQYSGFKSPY
Procedure: as §3, §2

[7] = molecular target: T7, chimeric P2X7/1 receptor 295–310 (Homo sapiens, UniProt Q99572, E305N/I21V/I310F/K297R/K300V/K306Y/M24R/N16P/N25R/N303G/Q22R/R20V/S23N/T19I/T308H/V304T/Y26L/Y295F/Y298H/Y299F); experiment: cell-based; format: cell-based
T7 construct: expressed in transfected cells; host or cells: Xenopus laevis oocytes (cRNA injection)
Procedure: as §3, §2

[8] = molecular target: T8, chimeric P2X7/1 receptor 105–114 (Homo sapiens, UniProt Q99572, E112P/G113K/I21V/K110V/L109I/M24R/N16P/N25R/Q22R/R20V/S23N/T19I/Y26L); experiment: Two-electrode voltage clamp of ATP-evoked currents in Xenopus oocytes; format: cell-based
T8 construct: expressed in transfected cells; host or cells: Xenopus laevis oocytes (cRNA injection)
T8 sequence (Q99572 1-595 N16P/T19I/R20V/I21V/Q22R/S23N/M24R/N25R/Y26L/L109I/K110V/E112P/G113K): T6 sequence (Q99572 1-595 N16P/T19I/R20V/I21V/Q22R/S23N/M24R/N25R/Y26L/K81P/K82G/V84G/H85P/S86Q/F88W) with P81K, G82K, G84V, P85H, Q86S, W88F, L109I, K110V, E112P, G113K
Procedure: as §3, §2

[9] = molecular target: T9, P2X7R point mutant A91C (Homo sapiens, UniProt Q99572, A91C/I21V/M24R/N16P/N25R/Q22R/R20V/S23N/T19I/Y26L); experiment: cell-based
T9 construct: expressed in transfected cells; host or cells: Xenopus laevis oocytes (cRNA injection)
Procedure: as §1, §2

[10] = molecular target: T10, chimeric P2X7/1 receptor 279–285 (left flipper) (Homo sapiens, UniProt Q99572, DEL279-281/I21V/M24R/N16P/N25R/N284E/Q22R/R20V/S23N/T19I/T282Y/T283E/V285K/Y26L); experiment: Two-electrode voltage clamp of ATP-evoked currents in Xenopus oocytes; format: cell-based; settings: chimera 279–285; for IC50: inhibition of EC90 ATP response
T10 construct: expressed in transfected cells; host or cells: Xenopus laevis oocytes (cRNA injection)
T10 sequence (Q99572 with tags, fused parts or gaps N16P/T19I/R20V/I21V/Q22R/S23N/M24R/N25R/Y26L/DEL279-281/T282Y/T283E/N284E/V285K): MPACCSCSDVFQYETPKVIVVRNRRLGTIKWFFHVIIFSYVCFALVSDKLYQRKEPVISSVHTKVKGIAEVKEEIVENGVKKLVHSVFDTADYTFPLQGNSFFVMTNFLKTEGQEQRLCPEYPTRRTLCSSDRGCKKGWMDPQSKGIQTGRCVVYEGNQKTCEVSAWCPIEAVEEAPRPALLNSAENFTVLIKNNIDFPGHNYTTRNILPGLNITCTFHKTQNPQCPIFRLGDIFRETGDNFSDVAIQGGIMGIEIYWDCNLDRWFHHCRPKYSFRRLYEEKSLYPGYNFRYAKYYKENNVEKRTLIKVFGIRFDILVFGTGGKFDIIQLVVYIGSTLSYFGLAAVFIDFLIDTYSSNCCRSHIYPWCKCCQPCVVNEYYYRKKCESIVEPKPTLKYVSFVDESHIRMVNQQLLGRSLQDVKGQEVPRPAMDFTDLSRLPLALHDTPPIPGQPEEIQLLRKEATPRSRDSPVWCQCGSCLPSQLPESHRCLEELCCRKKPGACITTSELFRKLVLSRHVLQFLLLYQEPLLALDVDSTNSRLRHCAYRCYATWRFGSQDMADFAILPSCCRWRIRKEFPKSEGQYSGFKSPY
Procedure: The production of the correct mutations and absence of coding errors was determined by DNA sequencing (Automated ABI Sequencing Service, University of Leicester, UK). cRNA was generated for the mutants and 50 nl (50 ng) was injected into manually defoliculated stage V Xenopus laevis oocytes using an Inject+Matic microinjector (J.A. Gabay, Inject+Matic, Geneva, Switzerland). Injected oocytes were stored at 16°C in ND96 buffer [in millimolar concentrations, NaCl 96, KCl 2, CaCl2 1.8, MgCl2 1, sodium pyruvate 5, and HEPES 5 (pH 7.6) supplemented with 50 μg/ml gentamycin and 50 μg/ml tetracycline]. Three to seven days postinjection two-electrode voltage clamp recordings were made from oocytes bathed in divalent-free ND96 buffer (in millimolar concentrations, NaCl 96, KCl 2, sodium pyruvate 5, HEPES 5, and 0.1 flufenamic acid, pH 7.6). Oocytes were voltage clamped at a holding potential of −60 mV with a GeneClamp500B amplifier (Molecular Devices).
as §2

T1 sequence (Q99572 whole entry N16P/T19I/R20V/I21V/Q22R/S23N/M24R/N25R/Y26L/F103A): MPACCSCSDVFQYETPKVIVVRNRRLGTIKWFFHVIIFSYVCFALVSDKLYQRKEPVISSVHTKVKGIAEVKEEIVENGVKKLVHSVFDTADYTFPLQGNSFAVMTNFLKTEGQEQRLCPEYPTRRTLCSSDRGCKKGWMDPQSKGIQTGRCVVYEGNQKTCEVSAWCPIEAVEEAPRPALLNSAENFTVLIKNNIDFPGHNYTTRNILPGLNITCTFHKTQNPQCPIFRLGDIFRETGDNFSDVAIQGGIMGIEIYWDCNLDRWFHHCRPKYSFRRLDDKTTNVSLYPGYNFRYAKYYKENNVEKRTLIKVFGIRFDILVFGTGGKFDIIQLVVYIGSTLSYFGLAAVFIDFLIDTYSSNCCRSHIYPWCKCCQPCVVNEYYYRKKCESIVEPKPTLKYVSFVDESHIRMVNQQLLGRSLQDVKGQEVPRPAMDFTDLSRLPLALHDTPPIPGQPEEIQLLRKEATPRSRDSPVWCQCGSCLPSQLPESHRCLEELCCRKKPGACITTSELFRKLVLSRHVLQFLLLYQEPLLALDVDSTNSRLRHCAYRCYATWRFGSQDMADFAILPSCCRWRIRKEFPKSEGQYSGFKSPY
T3 sequence (Q99572 whole entry N16P/T19I/R20V/I21V/Q22R/S23N/M24R/N25R/Y26L/T90V): as the sequence (Q99572 whole entry N16P/T19I/R20V/I21V/Q22R/S23N/M24R/N25R/Y26L/F103A) above, with T90V, A103F counted along it
T4 sequence (Q99572 whole entry N16P/T19I/R20V/I21V/Q22R/S23N/M24R/N25R/Y26L/F88A): as the sequence (Q99572 whole entry N16P/T19I/R20V/I21V/Q22R/S23N/M24R/N25R/Y26L/F103A) above, with F88A, A103F counted along it
T7 sequence (Q99572 1-595 with the stated changes): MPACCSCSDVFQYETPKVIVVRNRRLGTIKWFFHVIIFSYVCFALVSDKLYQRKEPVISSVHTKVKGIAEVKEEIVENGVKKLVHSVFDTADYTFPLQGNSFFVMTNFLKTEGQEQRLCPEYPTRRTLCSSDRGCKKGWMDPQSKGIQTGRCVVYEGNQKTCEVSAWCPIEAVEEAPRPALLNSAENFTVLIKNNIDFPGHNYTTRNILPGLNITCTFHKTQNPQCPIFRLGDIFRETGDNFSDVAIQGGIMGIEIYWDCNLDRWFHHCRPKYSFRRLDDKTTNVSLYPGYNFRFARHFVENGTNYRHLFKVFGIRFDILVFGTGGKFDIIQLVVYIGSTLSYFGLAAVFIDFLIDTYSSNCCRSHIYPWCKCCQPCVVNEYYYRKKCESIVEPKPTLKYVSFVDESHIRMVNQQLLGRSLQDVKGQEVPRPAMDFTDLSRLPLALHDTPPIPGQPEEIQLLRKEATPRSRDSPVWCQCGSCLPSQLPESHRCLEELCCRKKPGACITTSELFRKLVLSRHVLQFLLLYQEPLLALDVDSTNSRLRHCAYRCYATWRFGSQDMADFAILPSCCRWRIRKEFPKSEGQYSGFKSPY
T2 sequence (Q99572 whole entry N16P/T19I/R20V/I21V/Q22R/S23N/M24R/N25R/Y26L/L83A): as the sequence (Q99572 whole entry N16P/T19I/R20V/I21V/Q22R/S23N/M24R/N25R/Y26L/F103A) above, with L83A, A103F counted along it
T5 sequence (Q99572 whole entry N16P/T19I/R20V/I21V/Q22R/S23N/M24R/N25R/Y26L/Y299C): as the sequence (Q99572 whole entry N16P/T19I/R20V/I21V/Q22R/S23N/M24R/N25R/Y26L/F103A) above, with A103F, Y299C counted along it
T9 sequence (Q99572 whole entry N16P/T19I/R20V/I21V/Q22R/S23N/M24R/N25R/Y26L/A91C): as the sequence (Q99572 whole entry N16P/T19I/R20V/I21V/Q22R/S23N/M24R/N25R/Y26L/F103A) above, with A91C, A103F counted along it

Row | Structure (SMILES) | IC50 [1] | IC50 [2] | IC50 [3] | IC50 [4] | IC50 [5] | IC50 [6] | effect on antagonist potency relative to P2X7-2Nβ ([6]; chimera 81–88) | IC50 [7] | IC50 [8] | effect on antagonist potency relative to P2X7-2Nβ ([8]; chimera 105–114) | IC50 [9] | fold decrease in antagonist sensitivity relative to P2X7-2Nβ [10] | IC50 [10]
1 | COc1ccc(CC(=O)NC(N=C(NC#N)Nc2cccc3ncccc23)C(C)(C)C)cc1OC (centres unmarked) [A740003, N-[1-[[(cyanoamino)(5-quinolinylamino)methylene]amino]-2,2-dimethylpropyl]-3,4-dimethoxybenzeneacetamide] | 631 nM | 316 nM | 398 nM | 5010 nM | 100 nM | 79.4 nM | no effect | 501 nM | 100 nM | no effect | 2510 nM | ~9 fold | 631 nM
2 | Cl.Clc1cccc(-c2nnnn2Cc2cccnc2)c1Cl.O [A438079, 3-(5-(2,3-dichlorophenyl)-1H-tetrazol-1-yl)methyl pyridine hydrochloride hydrate] | > 100000 nM | 794 nM | 5010 nM | > 100000 nM | 251 nM | 1000 nM |  | 10000 nM | 501 nM |  | 20000 nM |  | 31600 nM
